Test results as given in patent US8080423B2, “Reagent containing protease reaction promoter and/or colorant stabilizer” (Asahi Kasei Pharma Corporation, priority 2004, dated 2011).

How the values were obtained:
[1] = biological target: hemoglobin (Homo sapiens, UniProt P68871+P69905); experiment: Measurement of hemoglobin and stability of reagent (Example 9); assay type: physicochemical; conditions: Example 2 reagent with 1% promoter; 660 nm; FIG. 1
Description: By using the reagents of Example 2, measurement was performed for a standard product having a known hemoglobin concentration.
Measurement was performed by using an autoanalyzer (Hitachi autoanalyzer 7170S; manufactured by Hitachi Ltd.). 20 μl of a sample was added with 180 μl of each of the reagents, and changes in absorbance were measured at 660 nm. Water was used as a control, and differences in absorbance between the sample and the water were calculated after 5 minutes. 5-serially diluted products of the standard hemoglobin product were used as the sample.
In addition, a preservation test was performed for a reagent in which sarcosinate MN was used as a protease reaction promoter at 37° C. for 4 days. The measurement of 5.5 g/dl of the standard hemoglobin product was performed by using, as a calibrator, a 30-fold diluted product of a standard substance for HbA1c measurement (primary calibrator JDS HbA1c Lot2, manufactured by Health Care Technology Foundation, level 1, hemoglobin concentration of 135 g/L). As a result, the measurement values of the hemoglobin were 54 mAbs, 4.5 g/L before the preservation test and 50 mAbs, 4.6 g/L after the preservation test. From the results, it was assumed that the present reagent is stable for 6 months or longer under refrigeration.

[2] = test system: Neutral protease (manufactured by Toyobo Co., Ltd.); experiment: Screening of protease reaction promoter (Example 1); assay type: biochemical; conditions: for protease reaction promoting effect (in words): judged from Table 1; for AH − AL / AH (absorbance from primary calibrator at level 4 (9.88%)) / AL (absorbance from primary calibrator at level 2 (5.38%)): 660 nm
Description: 1) R-1: Reagent for Protein Decomposition
2) R-2: Reagent for Glycated Amino Acid Detection
The following substances were independently used as a test sample. Note that concentrations described in parentheses each represent a final concentration of the substance in the reagent R1.
Absorbance before the addition of the reagent R-2 and 5 minutes after the addition was measured at 660 nm. […] The AH-AL shown in Table 1 is a difference obtained by subtracting absorbance AL which was obtained from the primary calibrator at level 2 (5.38%) from absorbance AH which was obtained from the primary calibrator at level 4 (9.88%). Here, if AH-AL is large, the sample is judged to have a protease reaction promoting effect. In particular, when AH-AL is 20 or more, the sample has an excellent promoting effect.

[3] = biological target: T1, protease (Bacillus licheniformis, UniProt P00780); experiment: Effect of protease reaction promoter on glycated albumin measurement (Example 12); assay type: biochemical
T1 construct: purchased Sigma Aldrich Japan K.K
Description: The reagents of Example 5 were used. 240 μl of the reagent R-1 which had been incubated to 37° C. was added with 8 μl of a control plasma H (manufactured by BML Inc.); […], and absorbance thereof was measured using a dominant wavelength of 546 nm and a subwavelength of 700 nm. A reaction was initiated at 37° C., and 80 μl of the R-2 reagent was added to the mixture exactly 5 minutes after the initiation. Absorbance before the addition of the R-2 reagent and after 5 minutes of the addition was measured. In addition, measurement was performed for a blank which was prepared by using distilled water instead of the substrate solution. The change in absorbance obtained from the control substrate solution was subtracted by the change in absorbance obtained from the blank sample, to thereby calculate ΔA0. Conversion of the values was performed by simultaneous measurement for a calibrator (manufactured by Asahi Kasei Pharma Corporation) for Lucica GA and comparison of absorbance. The measurement value for albumin was obtained from a difference in absorbance which was obtained by subtracting absorbance immediately before the addition of the R-2 reagent from absorbance immediately after the addition of the sample. […]

[4] = Screening of stabilizer for colorant, MBTH-TOOS (Example 13); assay type: physicochemical; conditions: MBTH-TOOS, 570 nm, 37° C., additives at conc. (1%; IDA 1 mM; Zn, Al 0.1 mM; ferrocyanide 0.01 mM; sorbitol 5%; DMSO 10%)
[5] = Screening of stabilizer for colorant, DA67 (Example 13); assay type: physicochemical; conditions: DA-67, 660 nm, 37° C., additives at conc. (1%; IDA 1 mM; Zn, Al 0.1 mM; ferrocyanide 0.01 mM; sorbitol 5%; DMSO 10%)
Description: (§1) The following substances were used as test samples. Note that concentrations described in parentheses each represent a final concentration of the substance in the reagent R-1.
(§2) Tween-20 (1%), Brij35 (1%), Triton X-100 (1%), deoxycholic acid (1%), imino-diacetic acid (IDA; 1 mM), ZnSO4 (0.1 mM), AlCl3 (0.1 mM), potassium ferrocyanate (0.01 mM), sorbitol (5%), glucose (5%), sodium nitrite (2 mM), dimethylsulfoxide (DMSO; 10%) (those substances are manufactured by Wako Pure Chemical Industries, Inc.), 2-hydroxypropyl-β-cyclodextrin (2HP β CD; 0.5%, 2%, 5%) and methyl-β-cyclodextrin (M β CD; 0.5%, 2%, 5%) (those substances are manufactured by Nihon Shokuhin Kako Co., Ltd.).
(§3) 500 μl of the R-1 reagent and 500 μl of the R-2 which had been incubated to 37° C. were mixed. The mixture was incubated to 37° C. for 2 minutes, and absorbance thereof (A0) was measured. The mixture was added with 10 μl of 500 μM hydrogen peroxide or distilled water. The whole was incubated to 37° C., and absorbance exactly 5 minutes after the addition of hydrogen peroxide (A1) was measured, to calculate a change in absorbance ΔA (A1-A0). The absorbance was measured using a wavelength of 750 nm when DA64 was used as the colorant, a wavelength of 660 nm when DA67 was used as the colorant, and a wavelength of 570 nm when 4-AA-TOOS was used as the colorant.
(§4) Immediately after the preparation of the reagent, the reagent was preserved at 37° C. for 2 days and 9 days, and measurement of sensitivity of a blank which was distilled water and of hydrogen peroxide was performed.

[6] = Screening of stabilizer for colorant, DA64 (Example 13); assay type: physicochemical; conditions: DA-64, 750 nm, 37° C., additives at conc. (1%; IDA 1 mM; Zn, Al 0.1 mM; ferrocyanide 0.01 mM; sorbitol 5%; DMSO 10%)
Description: as §1, §2, §3, §4

[7] = Effect of catalase addition on reagent containing cyclodextrin and colorant (Example 14); assay type: physicochemical; conditions: for 500 μM hydrogen peroxide / Blank: DA-67, 2% 2-hydroxypropyl-β-cyclodextrin, 500 U/ml catalase, 37° C.
Description: as §3
The same operation method as in Example 13 was used. Immediately after the preparation of the reagent, the reagent was preserved at 37° C. for 2 days and 9 days, and measurement of sensitivity of a blank which was distilled water and of hydrogen peroxide was performed.

[8] = test sample 1% in R-1, 20 or more = excellent promoting effect

Chain of hemoglobin (P69905 2-142 limits assumed): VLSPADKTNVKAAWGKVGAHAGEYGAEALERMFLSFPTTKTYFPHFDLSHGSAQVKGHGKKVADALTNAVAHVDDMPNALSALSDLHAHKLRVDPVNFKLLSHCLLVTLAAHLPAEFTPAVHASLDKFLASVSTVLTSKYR
Chain of hemoglobin (P68871 2-147 limits assumed): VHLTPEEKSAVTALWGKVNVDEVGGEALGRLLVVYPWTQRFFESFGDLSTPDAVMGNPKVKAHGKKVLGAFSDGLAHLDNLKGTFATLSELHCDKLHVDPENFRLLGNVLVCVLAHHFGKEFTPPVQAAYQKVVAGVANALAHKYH
T1 sequence (P00780 106-379): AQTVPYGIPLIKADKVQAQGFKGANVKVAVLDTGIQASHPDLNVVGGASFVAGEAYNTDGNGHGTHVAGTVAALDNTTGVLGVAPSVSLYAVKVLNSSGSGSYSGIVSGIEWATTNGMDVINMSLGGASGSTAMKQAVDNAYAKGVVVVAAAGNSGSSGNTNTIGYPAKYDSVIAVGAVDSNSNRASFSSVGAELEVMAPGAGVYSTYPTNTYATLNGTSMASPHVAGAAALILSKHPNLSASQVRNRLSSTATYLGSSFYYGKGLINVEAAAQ

| Molecule | protease reaction promoting effect (in words) [2] | AH − AL [2, 8] [mAbs] | AH (absorbance from primary calibrator at level 4 (9.88%)) ([2]; test sample 1% in R-1) | AL (absorbance from primary calibrator at level 2 (5.38%)) ([2]; test sample 1% in R-1) | blank (distilled water) change in absorbance ([4]; 0 days) [Abs] | blank (distilled water) change in absorbance ([4]; 2 days) [Abs] | blank (distilled water) change in absorbance ([5]; 0 days) [Abs] | blank (distilled water) change in absorbance ([5]; 2 days) [Abs] | blank (distilled water) change in absorbance ([6]; 0 days) [Abs] | blank (distilled water) change in absorbance ([6]; 2 days) [Abs] | blank (distilled water) change in absorbance ([6]; 9 days) [Abs] | also measured |
| --- | --- | --- | --- | --- | --- | --- | --- | --- | --- | --- | --- | --- |
| CCCCCCCCCCCCOCCOCCOCCOCCOCCOCCOCCOCCOCCOCCOCC(=O)O [AKYPO-RLM100, polyoxyethylene(10)lauryl ether acetic acid] | effects were observed | 29.1 | – | – | – | – | – | – | – | – | – | quantification of hemoglobin (in words) [1]: hemoglobin was able to be quantified |
| CCCCCCCCCCCC(=O)N(C)CCC(=O)[O-].[Na+] [Alaninate LN-30, sodium lauroyl methyl alaninate] | effects were observed | 26.7 | 92.3 | 65.6 | – | – | – | – | – | – | – | sensitivity of the GA measurement ([3]; control serum, no dilution, with protease reaction promoter (without: 32 mAbs)): 48 mAbs; increase of reaction rate ([3]; with vs without protease reaction promoter): 1.5 folds |
| O=C(O)CNCC(=O)O [IDA, imino-diacetic acid, reference compound] | – | – | – | – | 0.151 | 1.213 | 0.089 | 2.131 | −0.010 | 0.078 | 0.210 | AH (absorbance from primary calibrator at level 4 (9.88%)) ([2]; test sample 1 mM in R-1): 67.7; AH − AL ([2]; test sample 1 mM in R-1): 5.5 mAbs; AL (absorbance from primary calibrator at level 2 (5.38%)) ([2]; test sample 1 mM in R-1): 62.2 |
| CCCCCCCCCCCCCCCCCC(=O)N(C)CCS(=O)(=O)[O-].[Na+] [SMT, sodium N-stearoyl methyl taurinate] | effects were observed | 23.8 | 110.2 | 86.4 | – | – | – | – | – | – | – | quantification of hemoglobin (in words) [1]: hemoglobin was able to be quantified |
| OC[C@@H](O)[C@@H](O)[C@H](O)[C@@H](O)CO [Sorbitol, sorbitol, reference compound] | – | – | – | – | 0.151 | 1.225 | 0.093 | 2.545 | −0.010 | 0.080 | 0.230 | AH (absorbance from primary calibrator at level 4 (9.88%)) ([2]; test sample 5% in R-1): 68.3; AH − AL ([2]; test sample 5% in R-1): 6.5 mAbs; AL (absorbance from primary calibrator at level 2 (5.38%)) ([2]; test sample 5% in R-1): 61.8 |
| TritonX-100 [reference compound] | – | 5.2 | 44.9 | 39.7 | 0.146 | 1.135 | 0.085 | 2.100 | −0.005 | 0.080 | 0.221 | – |
| catalase | – | – | – | – | – | – | – | – | – | – | – | 500 μM hydrogen peroxide ([7]; 0 days): 0.510; Blank ([7]; 0 days): 0.057; 500 μM hydrogen peroxide ([7]; 2 days): 0.335; Blank ([7]; 2 days): 0.452; 500 μM hydrogen peroxide ([7]; 9 days): 0.304; Blank ([7]; 9 days): 1.052; effect of catalase addition on blank after preservation (in words) ([7]; Table 4): the blank after preservation significantly decreased |
